The values that follow come from paper PMC3748936 (Chembiochem : a European journal of chemical biology, 2012).

For series [1], the target named is T1, E. coli GMPS (Escherichia coli, UniProt P04079).
T1 sequence (P04079 1-525): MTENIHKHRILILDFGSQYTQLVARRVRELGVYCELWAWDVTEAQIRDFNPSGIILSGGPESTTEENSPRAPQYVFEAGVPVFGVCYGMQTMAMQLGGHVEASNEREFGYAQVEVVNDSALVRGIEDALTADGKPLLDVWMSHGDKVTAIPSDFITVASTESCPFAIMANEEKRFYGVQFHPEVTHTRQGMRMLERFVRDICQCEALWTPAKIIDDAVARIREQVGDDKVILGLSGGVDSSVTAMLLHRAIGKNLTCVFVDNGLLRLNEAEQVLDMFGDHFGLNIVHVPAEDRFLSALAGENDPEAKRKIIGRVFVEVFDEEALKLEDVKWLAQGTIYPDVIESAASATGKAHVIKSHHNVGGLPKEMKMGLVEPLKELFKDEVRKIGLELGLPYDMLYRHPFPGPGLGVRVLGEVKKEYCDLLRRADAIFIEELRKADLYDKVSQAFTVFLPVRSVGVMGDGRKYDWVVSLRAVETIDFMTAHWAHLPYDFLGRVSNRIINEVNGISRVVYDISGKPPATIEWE
As to the kind of experiment: GMPS inhibition of D-XMP amination, UV-Vis analysis. The class given is biochemical.

For series [2], the system named is GMPS isolated from rat Walker sarcoma cells. The settings on record: cited from earlier work.
A further series addresses GMPS. The settings on record: previous report; cited from earlier work.
The target in series [3] is T1, E. coli GMPS. The settings on record: previous report; cited from earlier work.
Series [4] addresses T1, E. coli GMPS. As to the kind of experiment: HPLC-based assay of GMPS enzymatic reaction products. The format is biochemical.
Series [5] concerns the target T1, E. coli GMPS. As to the kind of experiment: Continuous UV spectrophotometric assay of GMPS. The class given is biochemical. The settings on record: UV-Vis analysis, triplicate, average +/- S.D.
Substrate in series [6]: O=c1[nH]c(=O)c2ncn([C@@H]3O[C@H](COP(=O)(O)O)[C@@H](O)[C@H]3O)c2[nH]1
As to the kind of experiment: Continuous UV spectrophotometric assay of GMPS. The format is biochemical, E. coli. The settings on record: other: UV-Vis analysis; triplicate, average +/- S.D.

Take `NC(=O)c1ncn([C@@H]2O[C@H](CO)[C@@H](O)[C@H]2O)c1O` [Mizoribine]: the Ki (in general, the dissociation constant of the complex between target and ligand, obtained from inhibition or displacement) at E. coli GMPS [1] was 1.8 ± 0.7 µM; in series [2], 10 µM.

`OC[C@H]1O[C@@H](n2cnc3c(O)nc(O)nc32)[C@H](O)[C@@H]1O` [D-Xanthosine, D-xanthosine]: the “GMPS inhibition (in words)” value on E. coli GMPS [1] was “neither molecule inhibited GMPS”.

As for `O=c1[nH]c(=O)c2ncn(C3OC(CO)C(O)C3O)c2[nH]1` [L-Xanthosine, L-xanthosine], the “GMPS inhibition (in words)” value at E. coli GMPS [1] was “neither molecule inhibited GMPS”.

As for `C=C1O[C@@](CO)(n2cnc3c(N)ncnc32)[C@H](O)[C@@H]1O` [Decoyinine, decoyinine], the Ki on E. coli GMPS [1] is 54.1 ± 14.5 µM; at GMPS, 26 µM.

Consider `O=c1[nH]c(=O)c2ncn([C@@H]3O[C@H](COP(=O)(O)O)[C@@H](O)[C@H]3O)c2[nH]1` [D-XMP, xanthosine 5′-monophosphate], for which the “kcat (turnover number)” value at E. coli GMPS [3] was 9.4×10^–2 s^–1.

`O=c1[nH]c(=O)c2ncn([C@H]3O[C@@H](COP(=O)(O)O)[C@H](O)[C@@H]3O)c2[nH]1` [L-XMP]: the “fold more potent than decoyinine inhibition against E. coli GMPS” value at E. coli GMPS [1] (from Ki values) is roughly 7 fold. Also, at E. coli GMPS [4] (HPLC analysis), the “Km fold higher than the natural enantiomer D-XMP” value is recorded as ~ 10 fold, the “kcat fold difference in turnover number compared to D-XMP” value was 15,000 fold and the “kcat/Km (specific activity) fold decrease from the natural enantiomer” value is reported as 140,000 fold. Further, the “conversion of substrate by GMPS (HPLC peak, MS confirmed)” value at E. coli GMPS [4] (incubation with GMPS and NH4OAc) is given as “converted to L-GMP by GMPS”. Moreover, the kcat on E. coli GMPS [5] (substrate turnover to GMP) is given as 3.1 (± 0.7) × 10^−6 s^−1. Further, the Km – broadly, the substrate concentration at which the rate is half of its maximum – on E. coli GMPS [5] was 330 ± 105 µM.

B1: E. coli GMPS (Escherichia coli K-12) (protein)
chain: MTENIHKHRILILDFGSQYTQLVARRVRELGVYCELWAWDVTEAQIRDFNPSGIILSGGPESTTEENSPRAPQYVFEAGVPVFGVCYGMQTMAMQLGGHVEASNEREFGYAQVEVVNDSALVRGIEDALTADGKPLLDVWMSHGDKVTAIPSDFITVASTESCPFAIMANEEKRFYGVQFHPEVTHTRQGMRMLERFVRDICQCEALWTPAKIIDDAVARIREQVGDDKVILGLSGGVDSSVTAMLLHRAIGKNLTCVFVDNGLLRLNEAEQVLDMFGDHFGLNIVHVPAEDRFLSALAGENDPEAKRKIIGRVFVEVFDEEALKLEDVKWLAQGTIYPDVIESAASATGKAHVIKSHHNVGGLPKEMKMGLVEPLKELFKDEVRKIGLELGLPYDMLYRHPFPGPGLGVRVLGEVKKEYCDLLRRADAIFIEELRKADLYDKVSQAFTVFLPVRSVGVMGDGRKYDWVVSLRAVETIDFMTAHWAHLPYDFLGRVSNRIINEVNGISRVVYDISGKPPATIEWE
In the case of B1, in series [6], the Km came out at 24.9 ± 6.6 µM, the kcat is 0.043 ± 0.007 s⁻¹ and the kcat/Km (usually the second-order rate constant that governs catalysis at low substrate concentration) was found to be 1700 M⁻¹ s⁻¹.
